Assay results: US8071556B2, “Peptide substance revealing a stress protective effect, pharmaceutical composition on its base, and the method of its application” (Obschestvo S Ogranichennoi Otvetstevennostyu “Sia Peptides”, priority 2006, dated 2011)
Positions of bridges follow the written chain, without caps; N, C: chain ends. Non-standard residues stand in square brackets, D forms with d. Residues, ends and D or L forms follow the SMILES beside them. *: point of attachment. Ileψ(thiazoline)Cys = CC[C@H](C)[C@H](N)C1=N[C@H](C(=O)*)CS1; dOrn = NCCC[C@@H](N)C(=O)O

Columns and labels:
[1] = tested on: c-fos gene expression in the neurons of rat hypothalamic paraventricular nucleus; experiment: c-fos gene expression in neurons of rat hypothalamic paraventricular nucleus under emotional stress; assay type: in vivo, Wistar rats
Description: The effect of peptide H-Glu-Asp-Gly-OH was studied in the paraventicular nucleus of hypothalamus (PVH) in stress-resistant and stress-prone animals, as well as in rats exposed to emotional stress.
The experiments were conducted on 28 Wistar rats.
Behavior of the animals was preliminarily (for the purpose of identifying the extent of their resistance to emotional stress) estimated in the “open field” test. The effectiveness of peptide H-Glu-Asp-Gly-OH was studied on stress-resistant and stress-prone rats. Peptide H-Glu-Asp-Gly-OH was administered intraperitoneally in the doses of 0.1 and 0.01 μg per rat 7-10 days after the first “open field” test. One hour after the injection the rats were exposed to the 60 minutes emotional stress, which was modulated by motional restriction.
To identify the cells, containing Fos protein, which is a product of the early c-fos gene expression, an immunohystochemical investigation of brain section with automated counting of Fos-positive cells was performed. The peculiarities of c-fos gene induction were studied in the PVH.

[2] = tested on: c-Fos protein in rat pineal gland; experiment: c-Fos protein level and parenchyma status in rat pineal gland in osmotic stress; assay type: in vivo; conditions: rats, 48-hour osmotic stress
Description: Effect of intranasally administered H-Glu-Asp-Gly-OH peptide on c-Fos protein content in stress-affected rat pineal gland was studied. Immunohistochemical study of c-Fos protein content was performed in two groups of rats—intact and subjected to 48-hour osmotic stress. The latter were intranasally administered with peptide H-Glu-Asp-Gly-OH in the dose of 0.5 μg per animal in 0.1 ml of sterile physiological 0.9% NaCl solution (last infusion was performed 2 hours before taking the material). Pineal gland parenchyma in all groups of animals was studied using light optical appliances.

[3] = tested on: biogen amines in rat brain cortex; experiment: Level of biogen amines in rat brain cortex after peptide administration; assay type: in vivo; conditions: 2.5 μg/kg intraperitoneal daily for 5 days, vs control (FIG. 1)
Description: (§1) The study was performed on 27 white mongrel rats of both sexes with body weight of 300-320 g.
(§2) The animals were subjected to intraperitoneal injection of peptide H-Glu-Asp-Gly-OH in the dose of 2.5 μg/kg in 0.5 ml of sterile 0.9% NaCl solution daily for 5 days.
(§3) Control rats received sterile 0.9% NaCl solution in the same volume and by the same schedule.
(§4) Upon completion of peptide administration the animals were decapitated, and the content of noradrenaline, dopamine, 5-oxyindolacetic acid, serotonin and histamine was evaluated in the brain cortex and blood serum.

[4] = design: species or system male guinea pigs; conditions: guinea pig, in vivo
Description: (§5) Common toxicity of peptide H-Glu-Asp-Gly-OH was studied according to the requirements stated in the “Manual for experimental (pre-clinical) study of new pharmacological substances” (2000): acute toxicity in case of single administration of the substance, as well as sub-acute and chronic toxicity in case of long-term administration of the peptide.
The studies of chronic toxicity were conducted for 6 months, basing on the term of recommended clinical administration of the substance, on 92 male guinea pigs with body weight of 310-350 g. Experimental animals received the peptide daily, once a day, intramuscularly, for 6 months in the doses of 1 μg/kg, 0.1 mg/kg, 1 mg/kg in 0.5 ml of sterile 0.9% NaCl solution. Control animals received sterile 0.9% NaCl solution in the same volume and by the same schedule. Traditional methods were used for the evaluation of the following indices of the animals' peripheral blood: the quantity of erythrocytes, hemoglobin, reticulocytes, thrombocytes, leukocytes, leukocyte formula, erythrocyte sedimentation rate (ESR), erythrocyte resistance. Alongside with that, the content of total protein in the serum was identified using Lowry's method, as well as potassium and sodium content using the method of plasma spectrophotometry. After the completion of the experiment pathomorphologic studies of animal brain and spinal cord, spinal cord ganglia, thyroid gland, parathyroid glands, adrenal glands, testis, pituitary gland, heart, lungs, aorta, liver, kidneys, urinary bladder, pancreas, stomach, small intestine, large intestine, thymus, spleen, lymph nodes and bone marrow were performed.

[5] = Acute toxicity, single intramuscular administration; assay type: in vivo, white mongrel male mice; conditions: mice, 1-5 mg/kg, dose exceeding the therapeutic one by more than 5000 times
Excerpt: as §5
Acute toxicity was studied on 66 white mongrel male mice with body weight of 20-22 g. The animals were randomly subdivided into 6 equal groups. The substance was administered to the animals once, intramuscularly, in the doses of 1 mg/kg, 2 mg/kg, 3 mg/kg, 4 mg/kg, 5 mg/kg in 0.25 ml of sterile 0.9% NaCl solution. Control animals received 0.9% NaCl solution in the same volume.

[6] = Sub-acute toxicity, 90 days intramuscular administration; assay type: in vivo, white mongrel male rats; conditions: rats; intramuscular daily for 90 days; doses exceeding the therapeutic one by 100-1000 times
Excerpt: as §5
Sub-acute toxicity was studied on 64 white mongrel male rats with body weight of 180-220 g. Experimental animals daily, once a day, for 90 days received the substance intramuscularly in the doses of 1 μg/kg, 0.1 mg/kg, 1 mg/kg in 0.5 ml of sterile 0.9% NaCl solution. Control animals received sterile 0.9% NaCl solution in the same volume. Morphological composition and properties of the animals' peripheral blood was studied before the administration of the substance, as well as on the 30th, 60th and 90th day after the beginning of the administration of the substance. Biochemical and coagulologic indices of the blood were studied upon completion of the experiment.

[7] = tested on: biogen amines in rat blood serum; experiment: Level of biogen amines in rat blood serum after peptide administration; assay type: in vivo; conditions: 2.5 μg/kg intraperitoneal daily for 5 days, vs control (FIG. 2)
Description: as §1, §2, §3, §4

[8] = tested on: enkephalinases in human blood serum; experiment: Activity of enkephalinases in human blood serum ([3H]Leu-enkephalin disintegration); assay type: biochemical; conditions: 0.15 μM [3H]Leu-enkephalin
Description: The ability of peptide H-Glu-Asp-Gly-OH to influence the activity of endogen opioid peptide degradation enzymes, i.e. […], was estimated in kinetic studies judging by disintegration of low concentrations (0.15 μM) of [^3H]Leu-enkephalin by human blood serum enzymes. Commonly used enkephalinase inhibitors N-carboxymethyl-Phe-Leu (N-CMPL) and bacitracin were used as comparison substances. Summary enkephalinase activity of the blood serum taken from 5 healthy donors, was estimated in vitro. Results were evaluated after 4 studies.

[9] = Human functional status under low oxygen partial pressure (pressure chamber rise to 5000 meters); assay type: in vivo; conditions: healthy men
Description: Effect of peptide H-Glu-Asp-Gly-OH on human functional status and working ability in extreme conditions under the effect of low oxygen partial pressure was studied by examining 80 healthy men aged 20-22 years. The participants of the study were subdivided into 3 groups: 20 men formed the control group, while main groups I and II consisted of 30 persons each. Background study, including the examination of respiratory, cardiovascular and central nervous systems was performed on the first day of the experiment.
After the completion of background study the members of main group I began receiving the pharmaceutical composition, containing peptide H-Glu-Asp-Gly-OH as its active base, by intranasal infusions, in the dose of 5.0 mg in 1 ml of physiological solution (subgroup I), in the dose of 100.0 μg (subgroup II) and in the dose of 1.0 μg in 1.0 ml of physiological solution (subgroup III) […], for 2 days. Thus, the members of main group I received the peptide H-Glu-Asp-Gly-OH intranasally in the dose of 10 mg (subgroup I), 200 μg (subgroup II) and 2 μg (subgroup III) per course.
Members of main group II began receiving the pharmaceutical composition, containing the peptide H-Glu-Asp-Gly-OH as its active base, after the completion of background study, intramuscularly, in the dose of 5.0 mg in 1 ml of physiological solution (subgroup I), in the dose of 100.0 μg (subgroup II) and in the dose of 1.0 μg in 1.0 ml of physiological solution (subgroup III) daily, once a day, for 2 days.
Members of the control group received placebo in the form water for injections.
On the 4th day of the experiment the members of all 3 groups were subjected to the effect of hypoxic hypoxia by “rising” them to the altitude of 5000 meters for 60 minutes of exposition without auxiliary oxygen supply, which was imitated using the pressure chamber SBK-80. Participants of the experiment were shortly examined before the beginning of the “rise”, during the experiment and after its completion. On the 5th day of the experiment all participants were subjected to a full scale final examination. During the study reactive anxiety in all participants was on the moderate level (31-45 points). […] After 2 days of administration of the pharmaceutical composition containing peptide H-Glu-Asp-Gly-OH in different doses as its active base reactive anxiety in participants of the experiment was reduced by 10-13% depending on the dosage and method of administration of the pharmaceutical composition as compared to the members of the control group.

[10] = 10 μg/ml, human blood serum of 5 healthy donors (FIG. 5)
[11] = end of the test, depending on the dosage and method of administration, placebo 10-11%

SMILES: N[C@@H](CCC(=O)O)C(=O)N[C@@H](CC(=O)O)C(=O)NCC(=O)O [peptide H-Glu-Asp-Gly-OH, glutamyl-aspartyl-glycine] (H-Glu-Asp-Gly-OH)
- number of Fos-positive neural cells in PVH ([1]; 0.01 μg per rat intraperitoneal, stress-resistant rats, both not exposed and exposed to stress): increase
- number of Fos-positive neurons in PVH ([1]; 0.1 μg per rat intraperitoneal, against the background of stress, stress-resistant animals): increased
- number of Fos-positive neural cells in PVH ([1]; 0.1 μg per rat intraperitoneal, both stress-resistant and stress-prone rats): reduced
- content of c-Fos protein in pinealocytes ([2]; 0.5 μg per animal intranasal (FIG. 3)): Mild but reliable increase
- osmotic stress induced dilation of capillaries and pericapillary space in pineal gland parenchyma ([2]; 0.5 μg per animal intranasal (FIG. 4)): partial reduction
- dopamine content in brain cortex [3]: reliable increase
- noradrenaline content in brain cortex [3]: reliable increase
- serotonin content in brain cortex [3]: reliable increase
- chronic toxicity: side effects [4]: absence of side effects
- effect on ESR, erythrocyte resistance and biochemical indices of the blood serum [4]: No reliable effect
- pathologic changes (general status, blood indices, internal organs, cardiovascular and respiratory systems, liver and kidney functions) [4]: did not reveal any pathologic changes
- acute toxicity: toxic reactions [5]: does not cause toxic reactions
- sub-acute toxicity: side effects [6]: absence of side effects
- dopamine content in blood serum [7]: decrease
- histamine content in blood serum [7]: decrease
- serotonin content in blood serum [7]: decrease
- activity of blood serum enkephalinases [8, 10]: inhibited
- study participants showing good tolerability to hypoxia ([9]; 5000 meters, 60 minutes, placebo 60%): 80-90%
- reduction of reactive anxiety as compared to the control group ([9]; after 2 days of administration, different doses, intranasal or intramuscular): 10-13%
- lung ventilation in case of dosed physical load ([9]; after hypoxia impact): reduced lung ventilation
- increase in heart rate (HR) caused by hypoxia ([9]; depending on the dose and method of administration, placebo 30-40%): 10-20%
- increase in maximum oxygen consumption [9, 11]: 15-20%
- increase in physical working capacity index (PWC 170) [9, 11]: 15-20%
- subjective status under hypoxic hypoxia versus initial level ([9]; intramuscular administration, different doses): equal to the initial level
- decrease in the subjective status under hypoxic hypoxia ([9]; intranasal infusion): 4-5%
- reactive anxiety level versus initial level ([9]; next day after the impact of hypoxia, independently of the method of administration): equal to the initial one
- subjective status better than the initial level ([9]; next day after the impact of hypoxia, intramuscular administration): 15%
- subjective status better than the initial level ([9]; next day after the impact of hypoxia, intranasal infusion): 10%

SMILES: CC(C)C[C@H](NC(=O)[C@H](Cc1ccccc1)NCC(=O)O)C(=O)O [N-CMPL, N-carboxymethyl-Phe-Leu]
- activity of blood serum enkephalinases [8, 10]: comparable

SMILES: CC[C@H](C)[C@H](N)C1=N[C@H](C(=O)N[C@@H](CC(C)C)C(=O)N[C@H](CCC(=O)O)C(=O)N[C@H](C(=O)N[C@H]2CCCCNC(=O)[C@H](CC(N)=O)NC(=O)[C@@H](CC(=O)O)NC(=O)[C@H](Cc3cnc[nH]3)NC(=O)[C@@H](Cc3ccccc3)NC(=O)[C@H]([C@@H](C)CC)NC(=O)[C@@H](CCCN)NC2=O)[C@@H](C)CC)CS1 [bacitracin] ({Ileψ(thiazoline)Cys}-L[dE]IK[dOrn]I[dF]H[dD]N; lactam 4-C)
- activity of blood serum enkephalinases ([8]; 50 μg/ml, human blood serum of 5 healthy donors): comparable
